# Source: patent US8124610B2, “Sodium channel inhibitors” (Icagen Inc., priority 2007, dated 2012)
# Read-outs that look alike come from different tables or passages of the source.
# How the values were obtained:
# [1] = cited from earlier work
# hSCN9A = target: T1, hSCN9A (Homo sapiens, UniProt Q15858); test: Whole-cell patch-clamp electrophysiology (conventional or PatchXpress), HEK cells expressing hSCN9A, estimated IC-50; format: cell-based; settings: read-out: SCN9A EIC-50
# T1 construct: expressed in transfected cells
# T1 sequence (Q15858 whole entry): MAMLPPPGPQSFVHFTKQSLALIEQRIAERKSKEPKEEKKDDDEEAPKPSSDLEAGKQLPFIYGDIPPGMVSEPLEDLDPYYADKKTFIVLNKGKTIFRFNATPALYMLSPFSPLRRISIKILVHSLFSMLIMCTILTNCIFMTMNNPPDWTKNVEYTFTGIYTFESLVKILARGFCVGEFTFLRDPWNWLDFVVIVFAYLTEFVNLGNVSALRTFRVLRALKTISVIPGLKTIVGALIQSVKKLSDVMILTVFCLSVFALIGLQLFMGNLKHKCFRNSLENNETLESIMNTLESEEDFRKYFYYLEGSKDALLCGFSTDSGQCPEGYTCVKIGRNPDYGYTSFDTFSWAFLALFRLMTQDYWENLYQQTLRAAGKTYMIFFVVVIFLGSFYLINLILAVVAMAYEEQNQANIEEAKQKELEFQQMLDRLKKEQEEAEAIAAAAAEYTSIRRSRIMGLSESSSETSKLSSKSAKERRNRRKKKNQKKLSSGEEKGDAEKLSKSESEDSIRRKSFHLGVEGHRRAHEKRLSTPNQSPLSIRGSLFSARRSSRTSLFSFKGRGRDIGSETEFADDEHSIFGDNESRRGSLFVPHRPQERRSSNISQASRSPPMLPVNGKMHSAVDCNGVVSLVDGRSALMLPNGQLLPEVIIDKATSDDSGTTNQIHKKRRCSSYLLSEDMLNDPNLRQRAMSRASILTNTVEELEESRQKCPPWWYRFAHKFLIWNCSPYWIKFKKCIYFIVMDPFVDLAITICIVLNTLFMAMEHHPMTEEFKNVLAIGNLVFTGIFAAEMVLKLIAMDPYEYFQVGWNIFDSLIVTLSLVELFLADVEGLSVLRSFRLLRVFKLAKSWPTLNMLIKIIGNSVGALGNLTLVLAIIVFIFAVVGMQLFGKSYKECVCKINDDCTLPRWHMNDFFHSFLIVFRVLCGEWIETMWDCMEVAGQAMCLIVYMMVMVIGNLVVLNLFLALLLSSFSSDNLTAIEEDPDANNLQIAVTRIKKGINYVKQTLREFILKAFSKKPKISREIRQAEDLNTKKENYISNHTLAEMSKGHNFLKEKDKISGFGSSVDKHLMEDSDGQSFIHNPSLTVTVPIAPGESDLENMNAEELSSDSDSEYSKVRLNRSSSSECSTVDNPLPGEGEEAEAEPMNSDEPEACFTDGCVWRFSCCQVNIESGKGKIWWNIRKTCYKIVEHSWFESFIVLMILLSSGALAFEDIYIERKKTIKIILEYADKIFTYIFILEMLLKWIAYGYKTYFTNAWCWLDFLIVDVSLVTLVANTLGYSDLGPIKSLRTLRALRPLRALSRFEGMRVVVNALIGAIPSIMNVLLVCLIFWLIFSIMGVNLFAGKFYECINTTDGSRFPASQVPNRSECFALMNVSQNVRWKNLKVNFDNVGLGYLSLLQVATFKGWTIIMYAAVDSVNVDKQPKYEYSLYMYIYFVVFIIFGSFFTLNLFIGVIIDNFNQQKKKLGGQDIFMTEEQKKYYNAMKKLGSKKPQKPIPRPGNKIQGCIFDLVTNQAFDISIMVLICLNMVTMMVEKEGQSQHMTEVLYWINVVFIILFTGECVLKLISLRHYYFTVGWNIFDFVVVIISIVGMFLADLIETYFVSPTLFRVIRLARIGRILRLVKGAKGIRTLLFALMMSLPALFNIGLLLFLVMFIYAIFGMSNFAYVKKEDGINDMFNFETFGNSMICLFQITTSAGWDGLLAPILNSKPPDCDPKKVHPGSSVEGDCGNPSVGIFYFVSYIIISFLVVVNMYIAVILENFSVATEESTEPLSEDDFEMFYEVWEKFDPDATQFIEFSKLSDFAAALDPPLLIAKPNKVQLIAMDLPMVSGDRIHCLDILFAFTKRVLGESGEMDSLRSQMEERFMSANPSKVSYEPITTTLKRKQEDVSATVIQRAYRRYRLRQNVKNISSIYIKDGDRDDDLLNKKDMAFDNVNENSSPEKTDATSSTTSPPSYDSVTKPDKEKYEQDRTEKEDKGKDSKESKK
# How it was run: (§1)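 Current through each channel was evoked by a 20 ms step to 0 mV following an 8 s conditioning prepulse at the cell's own half-inactivation voltage. Recordings used HEK lines stably expressing the channel, conventional or PatchXpress patch clamp, room temperature, pH 7.4 bath; inhibition taken as pre/post-compound amplitude change.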
# hSCN3A = target: T2, hSCN3A (Homo sapiens, UniProt Q9NY46); test: Whole-cell patch-clamp electrophysiology (conventional or PatchXpress), HEK cells expressing hSCN3A, estimated IC-50; format: cell-based; settings: read-out: SCN3A EIC-50
# T2 construct: expressed in transfected cells
# T2 sequence (Q9NY46 whole entry): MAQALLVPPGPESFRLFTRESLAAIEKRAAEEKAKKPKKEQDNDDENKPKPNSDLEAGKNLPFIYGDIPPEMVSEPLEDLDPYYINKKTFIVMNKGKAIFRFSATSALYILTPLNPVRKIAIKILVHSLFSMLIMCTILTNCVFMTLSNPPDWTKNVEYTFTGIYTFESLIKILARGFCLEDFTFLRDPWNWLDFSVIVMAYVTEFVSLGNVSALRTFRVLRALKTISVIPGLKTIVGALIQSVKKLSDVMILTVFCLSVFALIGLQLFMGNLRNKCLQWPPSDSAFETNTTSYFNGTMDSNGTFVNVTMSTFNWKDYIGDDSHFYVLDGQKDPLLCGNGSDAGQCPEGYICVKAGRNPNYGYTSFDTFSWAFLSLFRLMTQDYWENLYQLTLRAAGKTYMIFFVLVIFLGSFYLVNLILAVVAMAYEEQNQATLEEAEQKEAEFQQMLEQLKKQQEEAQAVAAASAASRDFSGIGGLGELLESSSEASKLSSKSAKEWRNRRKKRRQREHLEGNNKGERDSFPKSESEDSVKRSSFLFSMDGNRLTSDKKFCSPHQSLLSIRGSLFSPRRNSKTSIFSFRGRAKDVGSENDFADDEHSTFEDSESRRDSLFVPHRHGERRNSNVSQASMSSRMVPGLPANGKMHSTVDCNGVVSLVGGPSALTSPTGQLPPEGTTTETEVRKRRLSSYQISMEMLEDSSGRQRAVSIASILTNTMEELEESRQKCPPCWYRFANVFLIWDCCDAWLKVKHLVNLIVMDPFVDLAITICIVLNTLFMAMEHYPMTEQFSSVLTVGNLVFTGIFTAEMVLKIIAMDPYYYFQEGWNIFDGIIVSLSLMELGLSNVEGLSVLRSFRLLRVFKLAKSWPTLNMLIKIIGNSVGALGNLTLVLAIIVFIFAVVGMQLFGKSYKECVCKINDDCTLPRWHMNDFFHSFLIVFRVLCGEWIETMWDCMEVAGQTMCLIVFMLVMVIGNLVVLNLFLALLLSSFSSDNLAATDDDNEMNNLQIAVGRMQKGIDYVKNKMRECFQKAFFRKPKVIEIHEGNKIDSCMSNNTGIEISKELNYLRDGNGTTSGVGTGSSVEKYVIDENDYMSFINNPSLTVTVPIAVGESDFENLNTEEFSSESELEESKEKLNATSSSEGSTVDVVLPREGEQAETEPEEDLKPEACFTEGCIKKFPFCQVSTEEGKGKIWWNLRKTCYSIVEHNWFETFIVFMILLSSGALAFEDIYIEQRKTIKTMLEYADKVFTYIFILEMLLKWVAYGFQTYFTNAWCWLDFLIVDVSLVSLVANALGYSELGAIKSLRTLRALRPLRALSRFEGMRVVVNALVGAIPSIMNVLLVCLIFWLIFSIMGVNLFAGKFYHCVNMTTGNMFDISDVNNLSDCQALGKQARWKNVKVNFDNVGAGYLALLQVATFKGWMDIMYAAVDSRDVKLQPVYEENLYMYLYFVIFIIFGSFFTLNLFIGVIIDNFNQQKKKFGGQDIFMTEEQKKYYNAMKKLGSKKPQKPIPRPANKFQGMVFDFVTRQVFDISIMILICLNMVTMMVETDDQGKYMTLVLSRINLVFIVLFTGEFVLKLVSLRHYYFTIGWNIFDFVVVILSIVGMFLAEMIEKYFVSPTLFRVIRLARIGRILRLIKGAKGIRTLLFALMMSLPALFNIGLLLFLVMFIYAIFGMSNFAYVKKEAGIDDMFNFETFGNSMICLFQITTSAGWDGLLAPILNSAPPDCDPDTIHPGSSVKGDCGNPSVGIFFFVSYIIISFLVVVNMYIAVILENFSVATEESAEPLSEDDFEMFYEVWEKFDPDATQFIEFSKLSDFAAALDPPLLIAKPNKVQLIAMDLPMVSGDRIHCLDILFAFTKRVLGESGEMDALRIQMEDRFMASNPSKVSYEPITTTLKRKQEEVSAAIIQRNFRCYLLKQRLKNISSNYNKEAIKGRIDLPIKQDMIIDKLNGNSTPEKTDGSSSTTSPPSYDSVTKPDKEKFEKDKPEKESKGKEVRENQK
# How it was run: as §1
# [2] = estimated IC-50, HEK cells expressing hSCN9A, class symbols or bounds
# [3] = estimated IC-50, HEK cells expressing hSCN3A, class symbols or bounds
# [4] = Table V, estimated IC-50 from single point electrophysiology, cells clamped at V1/2
Structure (SMILES),patients that respond to gabapentin treatment for neuropathic pain [1],IC50 (hSCN9A; [2]),IC50 (hSCN3A; [3]),IC50 (hSCN9A; [4]),IC50 (hSCN3A; [4])
NCC1(CC(=O)O)CCCCC1 [gabapentin],30%,–,–,–,–
"O=S(=O)(Nc1nccs1)c1ccc(Nc2nccc(OCc3ccccc3F)n2)cc1 [Compound 54, 4-(4-(2-fluorobenzyloxy)pyrimidin-2-ylamino)-N-(thiazol-2-yl)benzenesulfonamide]",–,> 1000 nM,2000 to 10000 nM,–,–
"Cc1cc(Cl)ccc1OCc1csc(Nc2ccc(S(=O)(=O)Nc3nccs3)cc2)n1 [Compound 96, 4-(4-((4-chloro-2-methylphenoxy)methyl)thiazol-2-ylamino)-N-(thiazol-2-yl)benzenesulfonamide]",–,< 2000 nM,< 2000 nM,–,–
"CN(CCc1ccccc1)Cc1csc(Nc2ccc(S(=O)(=O)Nc3nccs3)cc2)n1 [Compound 67, 4-(4-((methyl(phenethyl)amino)methyl)thiazol-2-ylamino)-N-(thiazol-2-yl)benzenesulfonamide]",–,2000 to 10000 nM,< 2000 nM,–,–
"CC(C)(C)c1csc(Nc2ccc(S(=O)(=O)Nc3nccs3)c3ccccc23)n1 [Compound 12, 4-(4-tert-Butyl-thiazol-2-ylamino)-naphthalene-1-sulfonic acid thiazol-2-ylamide]",–,–,–,2000 to 10000 nM,< 2000 nM
"O=S(=O)(Nc1nccs1)c1ccc(Nc2nc(-c3ccc(C(F)(F)F)cc3)cs2)cc1 [Compound 84, N-(thiazol-2-yl)-4-(4-(4-(trifluoromethyl)phenyl)thiazol-2-ylamino)benzenesulfonamide]",–,< 2000 nM,< 2000 nM,–,–
"CC(C)(C)c1cc(Nc2ccc(S(=O)(=O)Nc3nccs3)c(F)c2)n(-c2ccccc2)n1 [Compound 156, 4-(3-tert-butyl-1-phenyl-1H-pyrazol-5-ylamino)-2-fluoro-N-(thiazol-2-yl)benzenesulfonamide]",–,< 2000 nM,< 2000 nM,–,–
"Cn1nc(C2(c3ccc(Cl)cc3)CC2)cc1Nc1ccc(S(=O)(=O)Nc2nccs2)cc1 [Compound 129, 4-(3-(1-(4-chlorophenyl)cyclopropyl)-1-methyl-1H-pyrazol-5-ylamino)-N-(thiazol-2-yl)benzenesulfonamide]",–,< 2000 nM,< 2000 nM,–,–
"CN(C)c1ccc(CNCc2csc(Nc3ccc(S(=O)(=O)Nc4nccs4)cc3)n2)cc1 [Compound 73, 4-(4-((4-(dimethylamino)benzylamino)methyl)thiazol-2-ylamino)-N-(thiazol-2-yl)benzenesulfonamide]",–,2000 to 10000 nM,< 2000 nM,–,–
"Cc1cc(Nc2ccc(S(=O)(=O)Nc3ncc(Cl)s3)c(F)c2)n(-c2ccccc2)n1 [Compound 162, N-(5-chlorothiazol-2-yl)-2-fluoro-4-(3-methyl-1-phenyl-1H-pyrazol-5-ylamino)benzenesulfonamide]",–,< 2000 nM,< 2000 nM,–,–
"O=S(=O)(Nc1nccs1)c1ccc(Nc2nc(C[S+]([O-])c3ccc(F)cc3)cs2)cc1 (stereo not drawn) [Compound 89, 4-(4-((4-fluorophenylsulfinyl)methyl)thiazol-2-ylamino)-N-(thiazol-2-yl)benzenesulfonamide]",–,> 1000 nM,2000 to 10000 nM,–,–
"CC(C)(C)c1csc(Nc2ccc(S(=O)(=O)Nc3nccs3)c(C#N)c2)n1 [Compound 113, 4-(4-tert-butylthiazol-2-ylamino)-2-cyano-N-(thiazol-2-yl)benzenesulfonamide]",–,> 1000 nM,2000 to 10000 nM,–,–
"Cc1cc(Nc2ccc(S(=O)(=O)Nc3nccs3)c(F)c2)n(-c2c(C)cccc2C)n1 [Compound 191, 4-(1-(2,6-dimethylphenyl)-3-methyl-1H-pyrazol-5-ylamino)-2-fluoro-N-(thiazol-2-yl)benzenesulfonamide]",–,< 2000 nM,< 2000 nM,–,–
"Cc1cc(Nc2ccc(S(=O)(=O)Nc3nccs3)cc2F)n(-c2ccccc2)n1 [Compound 35, 3-fluoro-4-(3-methyl-1-phenyl-1H-pyrazol-5-ylamino)-N-(thiazol-2-yl)benzenesulfonamide]",–,–,–,< 2000 nM,< 2000 nM
"Cc1ccc(-n2nc(C)cc2Nc2ccc(S(=O)(=O)Nc3nccs3)c(F)c2)cc1 [Compound 147, 2-fluoro-4-(3-methyl-1-p-tolyl-1H-pyrazol-5-ylamino)-N-(thiazol-2-yl)benzenesulfonamide]",–,< 2000 nM,< 2000 nM,–,–
"Cc1csc(Nc2ccc(S(=O)(=O)Nc3nccs3)cc2)n1 [Compound 78, 4-(4-methylthiazol-2-ylamino)-N-(thiazol-2-yl)benzenesulfonamide]",–,> 1000 nM,2000 to 10000 nM,–,–

Structure (SMILES),patients that respond to gabapentin treatment for neuropathic pain [1],IC50 (hSCN9A; [2]),IC50 (hSCN3A; [3]),IC50 (hSCN9A; [4]),IC50 (hSCN3A; [4])
"O=S(=O)(Nc1nccs1)c1ccc(Nc2cccc(C(c3ccccc3)c3ccccc3)n2)cc1 [Compound 93, 4-(6-benzhydrylpyridin-2-ylamino)-N-(thiazol-2-yl)benzenesulfonamide]",–,> 1000 nM,< 2000 nM,–,–
"CC(C)(C)c1ccc(OCc2csc(Nc3ccc(S(=O)(=O)Nc4nccs4)cc3)n2)cc1 [Compound 62, 4-(4-((4-tert-butylphenoxy)methyl)thiazol-2-ylamino)-N-(thiazol-2-yl)benzenesulfonamide]",–,2000 to 10000 nM,< 2000 nM,–,–
"O=S(=O)(Nc1nccs1)c1ccc(Nc2nc(CC(c3ccccc3)c3ccccc3)cs2)cc1 [Compound 49, 4-(4-(2,2-diphenylethyl)thiazol-2-ylamino)-N-(thiazol-2-yl)benzenesulfonamide]",–,< 2000 nM,< 2000 nM,–,–
"Cc1cc(Nc2ccc(S(=O)(=O)Nc3nccs3)c(F)c2)n(-c2ccccc2C)n1 [Compound 146, 2-fluoro-4-(3-methyl-1-o-tolyl-1H-pyrazol-5-ylamino)-N-(thiazol-2-yl)benzenesulfonamide]",–,< 2000 nM,< 2000 nM,–,–
"O=S(=O)(Nc1nccs1)c1ccc(Nc2ncn(Cc3cccc(Cl)c3)n2)c(F)c1 [Compound 201, 4-(1-(3-chlorobenzyl)-1H-1,2,4-triazol-3-ylamino)-3-fluoro-N-(thiazol-2-yl)benzenesulfonamide]",–,< 2000 nM,2000 to 10000 nM,–,–
"CC(C)c1cc(Nc2ccc(S(=O)(=O)Nc3nccs3)c(F)c2)n(-c2ccccc2)n1 [Compound 145, 2-fluoro-4-(3-isopropyl-1-phenyl-1H-pyrazol-5-ylamino)-N-(thiazol-2-yl)benzenesulfonamide]",–,< 2000 nM,< 2000 nM,–,–
"O=C(Cn1ncc2cc(S(=O)(=O)Nc3nccs3)ccc21)c1ccc(F)cc1 [Compound 280, 1-(2-(4-fluorophenyl)-2-oxoethyl)-N-(thiazol-2-yl)-1H-indazole-5-sulfonamide]",–,2000 to 10000 nM,2000 to 10000 nM,–,–
"CN(c1ccc(S(=O)(=O)Nc2nccs2)c(F)c1)c1nc(Cc2ccc(Cl)cc2)cs1 [Compound 6, 4-[4-(4-Chloro-benzyl)-thiazol-2-yl]-methyl-amino-2-fluoro-N-thiazol-2-yl-benzenesulfonamide]",–,–,–,2000 to 10000 nM,2000 to 10000 nM
"N#Cc1cnn(-c2ccc(F)c(Cl)c2)c1Nc1ccc(S(=O)(=O)Nc2nccs2)cc1 [Compound 25, 4-(1-(3-chloro-4-fluorophenyl)-4-cyano-1H-pyrazol-5-ylamino)-N-(thiazol-2-yl)benzenesulfonamide]",–,–,–,> 10000 nM,< 2000 nM
"O=S(=O)(Nc1nccs1)c1ccc(Nc2nc(COc3ccc(Cl)cc3Cl)cs2)cc1 [Compound 95, 4-(4-((2,4-dichlorophenoxy)methyl)thiazol-2-ylamino)-N-(thiazol-2-yl)benzenesulfonamide]",–,< 2000 nM,< 2000 nM,–,–
"CC(C)(C)c1csc(Nc2ccc(S(=O)(=O)Nc3nccs3)cc2)n1 [Compound 14, 4-(4-Tert-butyl-thiazol-2-ylamino)-N-thiazol-2-yl-benzenesulfonamide]",–,–,–,2000 to 10000 nM,< 2000 nM
"O=[N+]([O-])c1ccc(CNCc2csc(Nc3ccc(S(=O)(=O)Nc4nccs4)cc3)n2)cc1 [Compound 72, 4-(4-((4-nitrobenzylamino)methyl)thiazol-2-ylamino)-N-(thiazol-2-yl)benzenesulfonamide]",–,2000 to 10000 nM,< 2000 nM,–,–
"Cc1nc(Nc2ccc(S(=O)(=O)Nc3nccs3)cc2)sc1C [Compound 80, 4-(4,5-dimethylthiazol-2-ylamino)-N-(thiazol-2-yl)benzenesulfonamide]",–,> 1000 nM,2000 to 10000 nM,–,–
"O=S(=O)(Nc1nccs1)c1ccc(Nc2nc(COc3ccc(Cl)cc3)cs2)cc1 [Compound 52, 4-(4-((4-chlorophenoxy)methyl)thiazol-2-ylamino)-N-(thiazol-2-yl)benzenesulfonamide]",–,< 2000 nM,< 2000 nM,–,–
"NC(=O)c1cnn(-c2ccc(F)c(Cl)c2)c1Nc1ccc(S(=O)(=O)Nc2nccs2)cc1 [Compound 112, 1-(3-chloro-4-fluorophenyl)-5-(4-(N-thiazol-2-ylsulfamoyl)phenylamino)-1H-pyrazole-4-carboxamide]",–,> 1000 nM,> 1000 nM,–,–
"O=S(=O)(Nc1nccs1)c1ccc(Nc2cc(Cc3ccc(Cl)cc3)n[nH]2)cc1 [Compound 16, 4-(3-(4-Chlorobenzyl)-1H-pyrazol-5-ylamino)-N-(thiazol-2-yl)benzenesulfonamide]",–,–,–,< 2000 nM,< 2000 nM
